# Laboratory results as given in patent publication US8288375B2, “Fungicidal bicyclic pyrazoles” (E.I. du Pont de Nemours and Company, priority 2007, dated 2012).
# Marks after values point to notes of the source that are not given here.
# How the values were obtained:
# Type in all cases: in vivo
# [1] = test system: Erysiphe graminis f. sp. tritici; test: Test A: wheat powdery mildew, test suspension sprayed on wheat seedlings, disease rating; settings: 200 ppm test suspension, 100 = 100% disease control, 0 = no control; for pest or weed control at 200 ppm: Blumeria graminis, 192 h
# [2] = test system: Fusarium graminearum; test: whole plant or invertebrate; settings: for pest or weed control at 40 ppm: Fusarium graminearum, in Triticum aestivum, 192 h, read-out: Test C disease control rating
# [3] = test system: Septoria nodorum; test: Test D: wheat glume blotch, test suspension sprayed on wheat seedlings, disease rating; settings: 200 ppm test suspension; for pest or weed control at 200 ppm: Parastagonospora nodorum, 216 h
# [4] = test system: Colletotrichum orbiculare; test: Test F: cucumber Colletotrichum anthracnose, test suspension sprayed on cucumber seedlings, disease rating
# [5] = test system: Botrytis cinerea; test: Test H: tomato Botrytis, test suspension sprayed on tomato seedlings, disease rating; settings: 200 ppm test suspension; for pest or weed control at 200 ppm: Botrytis cinerea, 120 h
# [6] = test system: Rhizoctonia oryzae; test: Test I: turf brown patch, test suspension sprayed on creeping bent grass seedlings, disease rating; settings: 200 ppm test suspension; for pest or weed control at 200 ppm: Waitea circinata, in Agrostis stolonifera, 120 h
# [7] = test system: Phytophthora infestans; test: whole plant or invertebrate
# [8] = test system: Plasmopara viticola; test: Test K: grape downy mildew, grape seedlings inoculated and then sprayed, disease rating; settings: 200 ppm test suspension
# [9] = test system: Pythium aphanidermatum; test: Test L: bluegrass pythium blight, test suspension sprayed on bluegrass seedlings, disease rating;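 note: 200 ppm unless marked * meaning 40 ppm or ** meaning 10 ppm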
# [10] = test system: Puccinia recondite f sp. tritici; test: Test B: wheat leaf rust, test suspension sprayed on wheat seedlings, disease rating; settings: for pest or weed control at 40 ppm: Puccinia, 192 h;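 for all read-outs here: 200 ppm unless marked * meaning 40 ppm or ** meaning 10 ppm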
# [11] = test system: Septoria tritici; test: Test E: wheat leaf blotch, test suspension sprayed on wheat seedlings, disease rating;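 note: 200 ppm unless marked * meaning 40 ppm or ** meaning 10 ppm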
# [12] = test system: Alternaria solani; test: Test G: tomato early blight, test suspension sprayed on seedlings, disease rating;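 note: 200 ppm unless marked * meaning 40 ppm or ** meaning 10 ppm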
# [13] = Phytophthora infestans, in Solanum lycopersicum, 120 h, read-out: Test J disease control rating
Compound,Test A disease control rating [1] [%],Test D disease control rating [3] [%],Test F disease control rating ([4]; 200 ppm test suspension) [%],Test H disease control rating [5] [%],Test I disease control rating [6] [%],Test B disease control rating ([10]; 40 ppm test suspension (*)),Test C disease control rating ([2]; 40 ppm test suspension (*)),Test E disease control rating ([11]; 40 ppm test suspension (*)),Test G disease control rating ([12]; 40 ppm test suspension (*)),Test J disease control rating ([7]; 40 ppm test suspension (*)),Test L disease control rating ([9]; 40 ppm test suspension (*)),also measured
COCC(C)Nc1nccc(-c2c(-c3ccc(F)cc3F)nn3c2CCC3)n1 (stereo not drawn) [compound 88],0,60,0,21,0,–,–,–,–,–,–,Test C disease control rating ([2]; 200 ppm test suspension): 100%; Test J disease control rating ([7]; 200 ppm test suspension): 100%; Test K disease control rating [8]: 0%; Test L disease control rating ([9]; 200 ppm test suspension): 99%
CC(CO)Nc1nccc(-c2c(-c3ccc(F)cc3)nn3c2CCCC3)n1.Cl (stereo not drawn) [compound 72],0,82,0,77,0,94* %,0* %,47* %,98* %,99* %,100* %,–
CCCC(CO)Nc1nccc(-c2c(-c3ccc(F)cc3)nn3c2CCCC3)n1 (stereo not drawn) [compound 73],0,78,0,0,0,85* %,0* %,84* %,0* %,17* %,98* %,–
"CC(=O)N1CCCc2c(-c3ccnc(NC4CC4)n3)c(-c3ccc(F)cc3)nn21 [Compound 134, 1-[3-[2-(cyclopropylamino)-4-pyrimidinyl]-2-(4-fluorophenyl)-5,6-dihydropyrazolo[1,5-b]pyridazin-7(4H)-yl]ethanone]",–,–,–,–,–,–,–,–,–,–,–,"pest or weed control at 200 ppm [1]: 91%; pest or weed control at 40 ppm ([10]; 40 ppm test suspension (*)): 85%; pest or weed control at 40 ppm [2]: 84%; pest or weed control at 200 ppm [3]: 96%; pest or weed control at 10 ppm ([11]; Zymoseptoria tritici, 504 h, 10 ppm test suspension (**)): 77%; pest or weed control at 40 ppm ([4]; Colletotrichum orbiculare, 144 h, 40 ppm test suspension (*)): 99%; pest or weed control at 10 ppm ([12]; Alternaria solani, 168 h, 10 ppm test suspension (**)): 98%; pest or weed control at 200 ppm [5]: 53%; pest or weed control at 200 ppm [6]: 24%; pest or weed control at 10 ppm [7, 13]: 90%; pest or weed control at 40 ppm ([9]; Pythium aphanidermatum, 120 h, 40 ppm test suspension (*)): 100%"
CN(N)c1nccc(-c2c(-c3ccc(F)cc3)nn3c2CCCC3)n1 [compound 70],83,90,91,29,9,0* %,0* %,84* %,46* %,53* %,98* %,–
CCC(C)Nc1nccc(-c2c(-c3ccc(F)cc3F)nn3c2CCC3)n1 (stereo not drawn) [compound 87],0,78,0,0,0,–,–,–,–,–,–,Test C disease control rating ([2]; 200 ppm test suspension): 99%; Test J disease control rating ([7]; 200 ppm test suspension): 94%; Test K disease control rating [8]: 0%; Test L disease control rating ([9]; 200 ppm test suspension): 99%
"CC(CO)Nc1nccc(-c2c(-c3ccc(F)cc3)nn3c2CCCC3)n1 (stereo not drawn) [Compound 5, 2-[[4-[2-(4-fluorophenyl)-4,5,6,7-tetrahydropyrazolo[5,1-a]pyridin-3-yl]-2-pyrimidinyl]amino]-1-propanol]",96,97,99,99,0,–,–,–,98* %,–,–,Test B disease control rating ([10]; 200 ppm test suspension): 100%; Test C disease control rating ([2]; 200 ppm test suspension): 100%; Test E disease control rating ([11]; 200 ppm test suspension): 97%; Test J disease control rating ([7]; 200 ppm test suspension): 99%; Test L disease control rating ([9]; 200 ppm test suspension): 100%
Fc1ccc(-c2nn3c(c2-c2ccnc(NOCC4CCC4)n2)CCCC3)cc1 [compound 75],31,0,0,0,0,0* %,0* %,92* %,0* %,0* %,0* %,–
CC(=O)N1CCn2nc(-c3ccc(F)cc3)c(-c3ccnc(NC(C)C)n3)c2C1 [Compound 130],86,97,0,34,0,92* %,0* %,97* %,58* %,100* %,100* %,–
COCC(C)Nc1nccc(-c2c(-c3ccc(C)cc3)nn3c2CCC3)n1 (stereo not drawn) [compound 89],21,60,0,8,0,–,–,–,–,–,–,Test C disease control rating ([2]; 200 ppm test suspension): 100%; Test J disease control rating ([7]; 200 ppm test suspension): 0%; Test K disease control rating [8]: 0%; Test L disease control rating ([9]; 200 ppm test suspension): 99%
CC(C)C(CO)Nc1nccc(-c2c(-c3ccc(F)cc3)nn3c2CCCC3)n1 (stereo not drawn) [compound 74],20,60,0,0,0,91* %,10* %,86* %,0* %,0* %,93* %,–
C=CCN1CNCc2c(-c3ccnc(NC4CC4)n3)c(-c3ccc(F)cc3)nn21 [Compound 137],86,92,0,0,0,0* %,69* %,73* %,99* %,53* %,99* %,–
"CN1CCCc2c(-c3ccnc(NC4CC4)n3)c(-c3ccc(F)cc3)nn21 [Compound 135, N-cyclopropyl-4-[2-(4-fluorophenyl)-4,5,6,7-tetrahydro-7-methylpyrazolo[1,5-b]pyridazin-3-yl]-2-pyrimidinamine]",–,–,–,–,–,–,–,–,–,–,–,"pest or weed control at 200 ppm [1]: 95%; pest or weed control at 40 ppm ([10]; 40 ppm test suspension (*)): 61%; pest or weed control at 40 ppm [2]: 84%; pest or weed control at 200 ppm [3]: 89%; pest or weed control at 40 ppm ([11]; Zymoseptoria tritici, 504 h, 40 ppm test suspension (*)): 90%; pest or weed control at 200 ppm ([4]; Colletotrichum orbiculare, 144 h, 200 ppm test suspension): 99%; pest or weed control at 40 ppm ([12]; Alternaria solani, 168 h, 40 ppm test suspension (*)): 99%; pest or weed control at 200 ppm [5]: 70%; pest or weed control at 200 ppm [6]: 0%; pest or weed control at 40 ppm [7, 13]: 70%"
COCC(C)Nc1nccc(-c2c(-c3ccc(OC)cc3)nn3c2CCC3)n1 (stereo not drawn) [compound 86],0,51,0,0,0,–,–,–,–,–,–,Test C disease control rating ([2]; 200 ppm test suspension): 0%; Test J disease control rating ([7]; 200 ppm test suspension): 94%; Test K disease control rating [8]: 0%; Test L disease control rating ([9]; 200 ppm test suspension): 99%
Fc1ccc(-c2nn3c(c2-c2ccnc(NCc4ccco4)n2)CCCC3)cc1 [compound 78],58,69,0,0,0,–,99* %,60* %,0* %,17* %,0* %,–
CC(C)Nc1nccc(-c2c(-c3ccc(F)cc3)nn3c2CNCC3)n1.Cl [Compound 133],0,0,98,0,0,19* %,42* %,0* %,0* %,73* %,99* %,–
CC(C)Nc1nccc(-c2c(-c3ccc(F)cc3)nn3c2CCCN3)n1 [Compound 136],0,97,0,41,0,92* %,77* %,28* %,99* %,57* %,100* %,–
